Where two headings read alike, the source gives them in different places.
How the values were obtained:
[1] = target: T1, PRMT5 (Homo sapiens, UniProt O14744); test: PRMT5 biochemical IC50 assay with SAM as cofactor; conditions: PRMT5, SAM as cofactor; read-out: SAM IC50
T1 construct: purchased Viva (custom protein)

[2] = target: T1, PRMT5; test: PRMT5 biochemical IC50 assay with no cofactor; conditions: PRMT5, no cofactor
Excerpt: Table 1 indicates IC50 values (μM) against PRMT5 for exemplary compounds in the presence of SAM as cofactor, with no cofactor, and with MTA as cofactor, respectively (columns 4-6). […] Ki values can be calculated from the IC50 values as described in the Examples section. As detailed in the Examples section, for the assay performed in the presence of SAM, IC50=Ki×1.5 (Ki=IC50/1.5).

[3] = target: T1, PRMT5; test: PRMT5 biochemical IC50 assay with MTA as cofactor; conditions: PRMT5, MTA as cofactor; read-out: MTA IC50
[4] = tested on: HAP1 MTAP-intact cell line; test: SDMA in-cell western assay, HAP1 MTAP-intact; type: cell-based; conditions: HAP1 MTAP-intact, read-out: MTAP HAP1 intact IC50
Summary of the method: (§1)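 Compounds were tested in HAP1 cells differing only in MTAP status (endogenous expression versus null). Cellular SDMA levels were then measured by in-cell western, giving an IC50 in each background.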

[5] = tested on: HAP1 MTAP-deleted cell line; test: SDMA in-cell western assay, HAP1 MTAP-deleted; type: cell-based; conditions: for IC50: HAP1 MTAP-deleted
Summary of the method: as §1

[6] = tested on: HAP1 MTAP-deleted cell line; test: Viability assay, MTAP-deleted cell line; type: cell-based; conditions: read-out: HAP1 MTAP deleted viability
Excerpt: Table 1 additionally indicates IC50 values in a viability assay for the MTAP-deleted cell line (column 10), indicating the effect of treatment with compound on cell survival.

[7] = Homo sapiens, HAP1, SDMA in-cell western
[8] = Homo sapiens, HAP1, SDMA in-cell western, read-out: HAP1 MTAP deleted IC50
[9] = IC50 ratio HAP1 MTAP-intact / HAP1 MTAP-deleted, SDMA in-cell western
[10] = Homo sapiens, HAP1, viability assay, MTAP-deleted cell line
[11] = read-out: No Cofactor/ rel IC50
[12] = Homo sapiens, HAP1, SDMA in-cell western, read-out: HAP 1 MTAP deleted IC50
[13] = Homo sapiens, HAP1, viability IC50, MTAP-deleted cell line
[14] = IC50 ratio HAP1 MTAP-intact vs HAP1 MTAP-deleted, SDMA in-cell western
[15] = Homo sapiens, HAP1, viability, HAP1 MTAP-deleted cell line
[16] = Homo sapiens, HAP1, viability assay, HAP1 MTAP-deleted

T1 sequence (O14744 whole entry): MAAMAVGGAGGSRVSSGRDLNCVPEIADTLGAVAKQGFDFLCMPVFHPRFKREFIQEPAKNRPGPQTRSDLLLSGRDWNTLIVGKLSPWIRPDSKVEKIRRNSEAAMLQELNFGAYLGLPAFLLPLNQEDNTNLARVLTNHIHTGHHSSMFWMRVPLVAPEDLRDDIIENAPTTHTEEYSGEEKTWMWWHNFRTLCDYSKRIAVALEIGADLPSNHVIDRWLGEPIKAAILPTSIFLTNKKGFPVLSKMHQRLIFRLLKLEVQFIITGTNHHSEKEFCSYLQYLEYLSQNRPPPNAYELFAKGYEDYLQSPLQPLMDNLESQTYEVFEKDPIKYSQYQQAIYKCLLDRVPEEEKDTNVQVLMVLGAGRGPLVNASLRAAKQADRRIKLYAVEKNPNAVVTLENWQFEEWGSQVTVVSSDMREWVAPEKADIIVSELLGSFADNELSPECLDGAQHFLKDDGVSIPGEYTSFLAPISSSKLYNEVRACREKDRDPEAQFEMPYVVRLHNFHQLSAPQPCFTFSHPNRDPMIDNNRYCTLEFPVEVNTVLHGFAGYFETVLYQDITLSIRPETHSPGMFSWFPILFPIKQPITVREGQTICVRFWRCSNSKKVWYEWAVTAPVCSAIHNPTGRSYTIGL
T1 sequence (Q9BQA1 whole entry partner): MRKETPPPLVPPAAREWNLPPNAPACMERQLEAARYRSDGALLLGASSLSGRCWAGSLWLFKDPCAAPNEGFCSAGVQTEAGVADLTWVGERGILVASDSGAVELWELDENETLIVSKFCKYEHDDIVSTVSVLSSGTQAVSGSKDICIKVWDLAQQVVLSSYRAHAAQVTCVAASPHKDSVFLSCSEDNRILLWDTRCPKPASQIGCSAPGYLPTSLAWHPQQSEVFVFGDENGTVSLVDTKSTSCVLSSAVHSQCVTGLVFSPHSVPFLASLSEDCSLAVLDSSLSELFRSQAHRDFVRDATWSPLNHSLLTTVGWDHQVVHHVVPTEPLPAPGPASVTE

Compound | IC50 [1] | IC50 ([2]; read-out: No Cofactor/rel IC50) | IC50 [3] | IC50 [4, 7] | IC50 [5, 8] | IC50 [2, 11] | IC50 ([4]; SDMA in-cell western) | IC50 ([5]; SDMA in-cell western, read-out: HAP 1 MTAP deleted IC50) | IC50 [5, 12] | MTAP intact/deleted ratio [5, 9] | IC50 [6, 10] | IC50 ([6]; viability assay, MTAP-deleted cell line) | IC50 [6, 13] | MTAP intact/deleted ratio [5, 14] | IC50 [6, 15] | IC50 [6, 16]
Cc1cc(NC(=O)C(=O)N2CC(C)(C)CCC2c2ccccc2)cnc1N (single isomer, unassigned) [Compound 52, N-(6-amino-5-methylpyridin-3-yl)-2-(5,5-dimethyl-2-phenylpiperidin-1-yl)-2-oxoacetamide] | 0.05 to 0.5 µM | – | < 0.05 µM | – | – | 0.05 to 0.5 µM | 0.1 to 1 µM | < 0.1 µM | – | A (an IC50 ratio greater than or equal to 10 fold) | – | 1 to 10 µM | – | – | – | –
C[C@@H]1CC[C@@H]([C@H]2CC[C@H](O)CC2)N(C(=O)C(=O)Nc2cncc(C(N)=O)c2)C1 (single isomer, unassigned) [Compound 395] | > 0.5 µM | > 0.5 µM | > 0.5 µM | > 1 µM | > 1 µM | – | – | – | – | C (an IC50 ratio of less than 3 fold) | > 10 µM | – | – | – | – | –
Cc1cc(NC(=O)C(=O)N2C[C@H](C)[C@H](CC(C)C)C[C@H]2c2ccc3scnc3c2)cnc1N (single isomer, unassigned) [Compound 1190] | 0.05 to 0.5 µM | < 0.05 µM | < 0.05 µM | 0.1 to 1 µM | < 0.1 µM | – | – | – | – | – | < 1 µM | – | – | A (an IC50 ratio greater than or equal to 10 fold) | – | –
C[C@@H]1CC[C@@H](c2cnc3[nH]ncc3c2)N(C(=O)C(=O)Nc2cncc(C(N)=O)c2)C1 (single isomer, unassigned) [Compound 550] | > 0.5 µM | > 0.5 µM | > 0.5 µM | > 1 µM | – | – | – | – | > 1 µM | C (an IC50 ratio of less than 3 fold) | – | – | > 10 µM | – | – | –
C[C@H]1CC[C@H](c2ccc3sc(CN(C)C)nc3c2)N(C(=O)C(=O)Nc2cnc(N)c(C3CC3)c2)C1 [Compound 1354, N-(6-Amino-5-cyclopropyl-3-pyridyl)-2-[(2R,5S)-2-[2-[(dimethylamino)methyl]-1,3-benzothiazol-5-yl]-5-methyl-1-piperidyl]-2-oxo-acetamide] | 0.05 to 0.5 µM | – | < 0.05 µM | < 0.1 µM | – | < 0.05 µM | – | – | < 0.1 µM | A (an IC50 ratio greater than or equal to 10 fold) | – | – | – | – | < 1 µM | –
CC(=O)N1CCC(c2nc3cc([C@H]4CC[C@H](C)CN4C(=O)C(=O)Nc4cnc(N)c(C)c4)ccc3s2)CC1 [Compound 1093, 2-((2R,5S)-2-(2-(1-acetylpiperidin-4-yl)benzo[d]thiazol-5-yl)-5-methylpiperidin-1-yl)-N-(6-amino-5-methylpyridin-3-yl)-2-oxoacetamide] | < 0.05 µM | < 0.05 µM | < 0.05 µM | < 0.1 µM | < 0.1 µM | – | – | – | – | – | < 1 µM | – | – | A (an IC50 ratio greater than or equal to 10 fold) | – | –
COCCc1nc2cc([C@@H]3CC[C@@H](C)CN3C(=O)C(=O)Nc3cnc(N)c(C4CC4)c3)ccc2s1 (single isomer, unassigned) [Compound 1332] | 0.05 to 0.5 µM | – | < 0.05 µM | 0.1 to 1 µM | – | 0.05 to 0.5 µM | – | – | < 0.1 µM | – | – | – | – | – | < 1 µM | –
C[C@@H]1CN(C(=O)C(=O)Nc2cncc(C(N)=O)c2)[C@@H](c2ccc(F)cc2)CC1(F)F (single isomer, unassigned) [Compound 718] | > 0.5 µM | > 0.5 µM | > 0.5 µM | > 1 µM | > 1 µM | – | – | – | – | C (an IC50 ratio of less than 3 fold) | – | – | – | – | – | > 10 µM
C[C@H]1CC[C@H](c2ccc3sc(CCN(C)C)nc3c2)N(C(=O)C(=O)Nc2cncc(C(N)=O)c2)C1 (single isomer, unassigned) [Compound 1128] | > 0.5 µM | > 0.5 µM | > 0.5 µM | > 1 µM | 0.1 to 1 µM | – | – | – | – | – | 1 to 10 µM | – | – | – | – | –
C[C@@H]1CC[C@@H](c2cc(F)cc(Cl)c2)N(C(=O)C(=O)Nc2cncc(C(N)=O)c2)C1 (single isomer, unassigned) [Compound 1084] | > 0.5 µM | > 0.5 µM | > 0.5 µM | > 1 µM | > 1 µM | – | – | – | – | – | > 10 µM | – | – | C (an IC50 ratio of less than 3 fold) | – | –
C[C@@H]1CC[C@@H](c2ccc3sccc3c2)N(C(=O)C(=O)Nc2cncc(C(N)=O)c2)C1 (single isomer, unassigned) [Compound 586] | > 0.5 µM | > 0.5 µM | > 0.5 µM | > 1 µM | – | – | – | – | > 1 µM | B (an IC50 ratio greater than or equal to 3 fold but lower than 10 fold) | – | – | > 10 µM | – | – | –
C[C@@H]1CC[C@@H](c2ccc3c(c2)CNC3=O)N(C(=O)C(=O)Nc2cncc(C(N)=O)c2)C1 (single isomer, unassigned) [Compound 740, 5-(2-(5-methyl-2-(1-oxoisoindolin-5-yl)piperidin-1-yl)-2-oxoacetamido)nicotinamide] | 0.05 to 0.5 µM | 0.05 to 0.5 µM | < 0.05 µM | > 1 µM | > 1 µM | – | – | – | – | B (an IC50 ratio greater than or equal to 3 fold but lower than 10 fold) | – | – | – | – | – | 1 to 10 µM

Second part, led by results:

IC50 [1] | IC50 ([2]; read-out: No Cofactor/rel IC50) | IC50 [3] | IC50 [4, 7] | IC50 [5, 8] | IC50 [2, 11] | IC50 ([4]; SDMA in-cell western) | IC50 ([5]; SDMA in-cell western, read-out: HAP 1 MTAP deleted IC50) | IC50 [5, 12] | Compound | MTAP intact/deleted ratio [5, 9] | IC50 [6, 10] | IC50 ([6]; viability assay, MTAP-deleted cell line) | IC50 [6, 13] | MTAP intact/deleted ratio [5, 14] | IC50 [6, 15] | IC50 [6, 16]
0.05 to 0.5 µM | 0.05 to 0.5 µM | < 0.05 µM | > 1 µM | < 0.1 µM | – | – | – | – | Cc1ncc(NC(=O)C(=O)N2C[C@@H](C)CC[C@@H]2c2ccccc2)cc1C(N)=O (single isomer, unassigned) [Compound 200] | A (an IC50 ratio greater than or equal to 10 fold) | 1 to 10 µM | – | – | – | – | –
0.05 to 0.5 µM | 0.05 to 0.5 µM | 0.05 to 0.5 µM | > 1 µM | – | – | – | – | > 1 µM | Cc1cc(NC(=O)C(=O)N2C[C@H](C)CC[C@H]2c2cccc(S(C)(=O)=O)c2)cnc1C (racemic) [Compound 648, N-(5,6-dimethyl-3-pyridyl)-2-[(2R,5S)-5-methyl-2-(3-methylsulfonylphenyl)-1-piperidyl]-2-oxo-acetamide] | B (an IC50 ratio greater than or equal to 3 fold but lower than 10 fold) | – | – | > 10 µM | – | – | –
0.05 to 0.5 µM | < 0.05 µM | < 0.05 µM | 0.1 to 1 µM | – | – | – | – | < 0.1 µM | Cc1cc(NC(=O)C(=O)N2C[C@H](C)CC[C@H]2c2ccc3c(c2)CCC(=O)N3)cnc1C (relative stereo) [Compound 632] | A (an IC50 ratio greater than or equal to 10 fold) | – | – | < 1 µM | – | – | –
0.05 to 0.5 µM | 0.05 to 0.5 µM | 0.05 to 0.5 µM | > 1 µM | – | – | – | – | 0.1 to 1 µM | Cc1cc(NC(=O)C(=O)N2C[C@H](C)CC[C@H]2c2cccc(S(C)(=O)=O)c2)cnc1N (racemic) [Compound 667, N-(6-amino-5-methyl-3-pyridyl)-2-[(2R,5S)-5-methyl-2-(3-methylsulfonylphenyl)-1-piperidyl]-2-oxo-acetamide] | A (an IC50 ratio greater than or equal to 10 fold) | – | – | 1 to 10 µM | – | – | –
0.05 to 0.5 µM | 0.05 to 0.5 µM | < 0.05 µM | > 1 µM | 0.1 to 1 µM | – | – | – | – | CC(C)[C@@H]1CC[C@@H](C)CN1C(=O)C(=O)Nc1cncc(C(N)=O)c1 (racemic) [Compound 176, 5-[[2-[(2S,5R)-2-isopropyl-5-methyl-1-piperidyl]-2-oxo-acetyl]amino]pyridine-3-carboxamide] | A (an IC50 ratio greater than or equal to 10 fold) | > 10 µM | – | – | – | – | –
0.05 to 0.5 µM | – | < 0.05 µM | 0.1 to 1 µM | – | < 0.05 µM | – | – | < 0.1 µM | CCc1cc(NC(=O)C(=O)N2C[C@@H](C)CC[C@@H]2c2ccc(N3CCCC4(CCN(C)CC4)C3)cc2)cnc1N [Compound 1401, N-(6-Amino-5-ethyl-3-pyridyl)-2-[(2R,5S)-5-methyl-2-[4-(9-methyl-2,9-diazaspiro[5.5]undecan-2-yl)phenyl]-1-piperidyl]-2-oxo-acetamide] | A (an IC50 ratio greater than or equal to 10 fold) | – | – | – | – | < 1 µM | –

— patent US11999727B2 (Tango Therapeutics, Inc., priority 2020, dated 2024)
